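96-well plates; 48 h exposure; 5 concentrations. Endpoints by linear interpolation between flanking doses. Not reached: highest tested concentration assigned. GI50 is the concentration that inhibits growth by half.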 The source made the active and inactive calls. Cut-off read from the data, not from the text of the source: active = GI50 up to about 1.1 µM and inactive = higher.
Columns and labels:
Assay in all cases: inhibition of tumour cell growth, NCI panel, 48 h
NCI-H226 = tested on: NCI-H226
K562 = tested on: K562
SF-295 = tested on: SF-295
RXF 393 = tested on: RXF 393
SN12C = tested on: SN12C
DLD-1 = tested on: DLD-1
CAKI-1 = tested on: CAKI-1
SK-MEL-2 = tested on: SK-MEL-2
RXF 631 = tested on: RXF 631
HCC 2998 = tested on: HCC 2998
NCI-H522 = tested on: NCI-H522
SF-539 = tested on: SF-539
XF498 = tested on: XF498
M19-MEL = tested on: M19-MEL
SR = tested on: SR
HOP-62 = tested on: HOP-62
786-0 = tested on: 786-0
A498 = tested on: A498
EKVX = tested on: EKVX
MOLT-4 = tested on: MOLT-4
RPMI-8226 = tested on: RPMI-8226
HCT-116 = tested on: HCT-116
LXFL 529 = tested on: LXFL 529
CCRF-CEM = tested on: CCRF-CEM
DMS-114 = tested on: DMS-114
LOX IMVI = tested on: LOX IMVI
U-251 = tested on: U-251
OVCAR-8 = tested on: OVCAR-8
NCI-H23 = tested on: NCI-H23
SNB-75 = tested on: SNB-75
OVCAR-5 = tested on: OVCAR-5
SNB-78 = tested on: SNB-78
IGROV-1 = tested on: IGROV-1
UO-31 = tested on: UO-31
COLO 205 = tested on: COLO 205
TK-10 = tested on: TK-10
M14 = tested on: M14
HT-29 = tested on: HT-29
SW-620 = tested on: SW-620
SK-MEL-5 = tested on: SK-MEL-5
KM12 = tested on: KM12
ACHN = tested on: ACHN
HCT-15 = tested on: HCT-15
NCI-H460 = tested on: NCI-H460
SNB-19 = tested on: SNB-19
Malme-3M = tested on: Malme-3M
HOP-92 = tested on: HOP-92
HL-60 = tested on: HL-60
KM-20L2 = tested on: KM-20L2
SK-OV-3 = tested on: SK-OV-3
OVCAR-3 = tested on: OVCAR-3
SF-268 = tested on: SF-268
DMS-273 = tested on: DMS-273
UACC-257 = tested on: UACC-257
SK-MEL-28 = tested on: SK-MEL-28
OVCAR-4 = tested on: OVCAR-4
A549 = tested on: A549
UACC-62 = tested on: UACC-62
HOP-18 = tested on: HOP-18

Measured: GI50

c1ccc2c(c1)[nH]c1c2nc2ccccn21
inactive: NCI-H226 > 100 µM | K562 74.3 µM | SF-295 > 100 µM | RXF 393 > 100 µM | SN12C > 100 µM | DLD-1 66.1 µM | CAKI-1 67.9 µM | SK-MEL-2 > 100 µM | RXF 631 > 100 µM | HCC 2998 > 100 µM | NCI-H522 > 100 µM | SF-539 > 100 µM | XF498 > 100 µM | M19-MEL > 100 µM | SR > 100 µM | HOP-62 > 100 µM | 786-0 81.3 µM | A498 85.5 µM

COC(=O)c1[nH]c(=S)[nH]c(=O)c1-c1ccc(Cl)cc1
> 50 µM: HCT-15
inactive: EKVX > 50 µM | MOLT-4 > 50 µM | RPMI-8226 > 50 µM | HCT-116 > 50 µM | LXFL 529 > 50 µM | CCRF-CEM > 50 µM | NCI-H226 > 50 µM | DMS-114 > 50 µM | LOX IMVI > 50 µM | U-251 > 50 µM | OVCAR-8 > 50 µM | NCI-H23 > 50 µM | SNB-75 > 50 µM | OVCAR-5 > 50 µM | K562 > 50 µM | SNB-78 > 50 µM | IGROV-1 > 50 µM | UO-31 > 50 µM | SF-295 > 50 µM | RXF 393 > 50 µM | COLO 205 > 50 µM | SN12C > 50 µM | DLD-1 > 50 µM | CAKI-1 > 12.2 µM | TK-10 > 50 µM | SK-MEL-2 > 50 µM | M14 > 50 µM | RXF 631 > 50 µM | HCC 2998 > 50 µM | HT-29 > 50 µM | SW-620 > 50 µM | SK-MEL-5 > 50 µM | KM12 > 50 µM | ACHN > 50 µM | NCI-H460 > 50 µM | SNB-19 > 50 µM | NCI-H522 > 50 µM | Malme-3M > 50 µM | HOP-92 > 50 µM | HL-60 > 50 µM | SF-539 > 50 µM | KM-20L2 > 50 µM | SK-OV-3 > 50 µM | XF498 > 50 µM | OVCAR-3 > 50 µM | SF-268 > 50 µM | DMS-273 > 50 µM | M19-MEL > 50 µM | SR > 50 µM | HOP-62 > 50 µM | 786-0 > 50 µM | A498 > 50 µM | UACC-257 > 50 µM | SK-MEL-28 > 50 µM | OVCAR-4 > 50 µM | A549 > 50 µM | UACC-62 > 50 µM

COc1ccccc1CCc1cc(OC)c(OC)c(OC)c1
36.1 µM: HCT-15
inactive: EKVX 49.3 µM | MOLT-4 23.9 µM | RPMI-8226 20.2 µM | HCT-116 37.1 µM | LXFL 529 28.4 µM | CCRF-CEM 31.8 µM | NCI-H226 39.8 µM | DMS-114 41.6 µM | LOX IMVI 40.3 µM | U-251 40.4 µM | OVCAR-8 45.9 µM | SNB-75 41.6 µM | OVCAR-5 1.56 µM | K562 33 µM | SNB-78 43 µM | IGROV-1 49.9 µM | UO-31 22.9 µM | SF-295 51.4 µM | RXF 393 20.9 µM | COLO 205 42.2 µM | SN12C 61.9 µM | DLD-1 61.5 µM | CAKI-1 57.8 µM | TK-10 76.7 µM | M14 47.6 µM | HOP-18 > 100 µM | HT-29 41.5 µM | SW-620 47.5 µM | SK-MEL-5 19.5 µM | KM12 38.5 µM | ACHN 51.9 µM | NCI-H460 44.1 µM | SNB-19 75.9 µM | NCI-H522 26.8 µM | Malme-3M 49.5 µM | HOP-92 26.8 µM | HL-60 11 µM | SF-539 65.3 µM | KM-20L2 55.8 µM | XF498 35.9 µM | OVCAR-3 41.3 µM | SF-268 65.9 µM | DMS-273 39.6 µM | M19-MEL 48.3 µM | HOP-62 > 100 µM | 786-0 74.3 µM | A498 57.9 µM | UACC-257 45 µM | SK-MEL-28 65.6 µM | OVCAR-4 40.6 µM | A549 41.1 µM | UACC-62 65 µM

CC(=O)n1c2c(c(=O)n1-c1ccccc1)[S+]([O-])CCC2 (stereo not given)
active: HCC 2998 < 0.01 µM | OVCAR-4 0.705 µM
inactive: EKVX > 95.7 µM | MOLT-4 1.25 µM | RPMI-8226 6.08 µM | HCT-116 44.1 µM | LXFL 529 28.7 µM | CCRF-CEM 7.5 µM | NCI-H226 > 100 µM | DMS-114 35.9 µM | LOX IMVI > 58.3 µM | U-251 > 100 µM | OVCAR-8 > 100 µM | NCI-H23 > 100 µM | SNB-75 51.4 µM | OVCAR-5 > 100 µM | K562 26.7 µM | SNB-78 85.9 µM | IGROV-1 99.1 µM | UO-31 > 100 µM | RXF 393 15.6 µM | COLO 205 > 100 µM | SN12C > 91.4 µM | DLD-1 48 µM | CAKI-1 55.5 µM | TK-10 > 100 µM | SK-MEL-2 > 84.7 µM | M14 49.7 µM | RXF 631 97.1 µM | HT-29 69.5 µM | SW-620 33.3 µM | SK-MEL-5 62.4 µM | KM12 9.1 µM | ACHN 46.8 µM | NCI-H460 16.7 µM | SNB-19 > 100 µM | NCI-H522 5.65 µM | Malme-3M > 56.4 µM | HL-60 24.4 µM | SF-539 20.4 µM | KM-20L2 > 71.6 µM | SK-OV-3 > 100 µM | XF498 > 76.7 µM | OVCAR-3 57.1 µM | SF-268 > 100 µM | DMS-273 23.2 µM | M19-MEL 29.6 µM | SR 4.53 µM | HOP-62 11.1 µM | 786-0 40.7 µM | A498 > 100 µM | UACC-257 46.7 µM | SK-MEL-28 > 100 µM | A549 > 92.9 µM | UACC-62 20.3 µM
21.7 µM: HCT-15

COc1ccc(-c2cc(O)c3cc4c(cc3n2)OCO4)cc1OC
> 100 µM: HCT-15
inactive: EKVX > 100 µM | MOLT-4 > 100 µM | RPMI-8226 > 100 µM | HCT-116 > 100 µM | LXFL 529 > 100 µM | CCRF-CEM > 100 µM | NCI-H226 > 100 µM | DMS-114 > 100 µM | LOX IMVI > 100 µM | U-251 > 100 µM | OVCAR-8 > 100 µM | NCI-H23 > 100 µM | SNB-75 > 100 µM | K562 > 100 µM | SNB-78 > 100 µM | IGROV-1 > 100 µM | UO-31 > 100 µM | SF-295 > 100 µM | RXF 393 > 100 µM | COLO 205 > 100 µM | SN12C > 100 µM | DLD-1 > 100 µM | CAKI-1 > 100 µM | TK-10 > 100 µM | SK-MEL-2 > 100 µM | M14 > 100 µM | HOP-18 > 100 µM | HCC 2998 > 100 µM | HT-29 > 100 µM | SW-620 > 100 µM | SK-MEL-5 65.6 µM | KM12 > 100 µM | ACHN > 100 µM | NCI-H460 > 100 µM | SNB-19 > 100 µM | NCI-H522 > 100 µM | Malme-3M > 100 µM | HOP-92 > 100 µM | HL-60 > 100 µM | SF-539 > 100 µM | KM-20L2 > 100 µM | SK-OV-3 > 100 µM | XF498 > 100 µM | OVCAR-3 > 100 µM | SF-268 > 100 µM | DMS-273 > 100 µM | M19-MEL > 100 µM | SR 45 µM | HOP-62 > 100 µM | 786-0 > 100 µM | SK-MEL-28 > 100 µM | OVCAR-4 > 100 µM | A549 > 100 µM | UACC-62 > 100 µM

Source: ChEMBL document CHEMBL1201862, “PubChem BioAssay data set” (2004)
